Here are results for 14 compounds from patent publication US20060128614A1, “Antimicrobial peptides with reduced hemolysis and methods of their use” (priority 2002, published 2006).

One data set has as its system E. coli. It is filed as cell-based, Escherichia coli. On the procedure:
(§1) The in vitro antimicrobial activities of antimicrobial agents were tested using standard NCCLS bacterial and fungi inhibition assays or minimum inhibition concentration (MIC) tests. The MIC value is the lowest concentration of peptide at which the visible growth of test organisms was inhibited and reduced. Overnight cultures of the test organisms were diluted to produce an inoculum containing approximately […] in Meuller-Hinton broth (MHB). From the peptide stock solution, serial dilutions of the peptides into […] were prepared and all wells of a 96-well microtiter plate were subsequently inoculated with the diluted culture of the test organisms. After 18 hours of incubation at 37°, the results were assayed for turbidity as an indicator of cell growth. MIC values for the peptides are shown in Table 3 and Table 4 and FIGS. 1(A), 1(B), 1 (C) and 1 (D) show survival rates for Pac-625 and Pac-626.

For the next data set, the system named is S. aureus. Format: cell-based, Staphylococcus aureus. On the procedure:
as §1

In data set [1] the test system is human red blood cells (RBC). Format: cell-based. The protocol:
Pac-401, Pac-403, Pac-625 and Pac-626 were tested for hemolysis against human red blood cells (RBC). The RBCs with EDTA were rinsed 3 times with PBS (800 g, 10 min) and re-suspended in PBS. The RBCs were diluted into 10% with phosphate-buffered saline and placed […] into each eppendorf. The peptides dissolved in PBS were then added to 50 μl of 10% solution of RBCs and incubated for an hour at 37° C. (final RBC concentration, 5% v/v). The samples were centrifuged at 800 g for 10 min […]. Various concentrations of peptides were incubated with pretreated RBC and the percentage of hemolysis determined.

Data set [2] has as its system outer membrane of E. coli. Description: NPN uptake assay, outer membrane permeabilization. It is filed as cell-based. To be noted: intact cells of E. coli. On the procedure: The outer membrane permeabilization activity of the peptide variants was determined by the 1-N-phenylnaphthylamine (NPN) uptake assay, using intact cells of E. coli. […] Since NPN is hydrophobic, it provides a direct measurement of the degree of outer membrane permeability. E. coli take up little or no NPN in a general condition. In the presence of permeabilizer compounds (EDTA, polymyxin B, Neomycin, or antimicrobial peptides), NPN partitioned into the bacterial outer membrane results in an increase in fluorescence. Fluorescence will vary with the concentration of peptide.
One ml of overnight culture was used to inoculate 50 ml of media and incubated at 37° C. with shaking. The culture was permitted to grow to an OD600 of 0.4 to 0.6, cells were spun down at 3500 rpm for 10 minutes, washed, and re-suspended in buffer to an OD600 of 0.5. The OD600 was recorded, 1 ml of cells (OD600=0.5) was added to the cuvette and measured after 2-5 seconds. 20 μl NPN 0.5 mM, shaken to mix, was added and measured after 2-5 seconds. 10 ul antibiotic 100× desired final concentration was added, shaken to mix, and measured until the maximal value was reached within 1 to 5 minutes. The concentration of peptide leading to 50% of the maximum increase in NPN uptake was recorded as the P50.

Values after ≈ are worked out from the molar mass of the structure shown. Read-outs that look alike come from different tables or passages of the source. Non-standard residues stand in square brackets, D forms with d. Residues, ends and D or L forms follow the SMILES beside them. Bip = N[C@@H](Cc1ccc(-c2ccccc2)cc1)C(=O)O; 1Nal = N[C@@H](Cc1cccc2ccccc12)C(=O)O; 2Nal = N[C@@H](Cc1ccc2ccccc2c1)C(=O)O

As to `CC[C@H](C)[C@@H]1NC(=O)[C@H](Cc2ccc3ccccc3c2)NC(=O)[C@H](CCCNC(=N)N)NC(=O)[C@H](CCCNC(=N)N)NC(=O)[C@H](Cc2ccc3ccccc3c2)NC(=O)[C@H](CCCCN)NC1=O` [Pac-401 C, K (2-Nal) R R (2-Nal) I] (cyclo(K[2Nal]RR[2Nal]I); ring closure inferred), in the data set on E. coli (18 h), the “MIC against E. coli” value was above 64 µg/mL. Also, in the data set with S. aureus (18 h), the “MIC against S. aureus” value is above 64 µg/mL.

Regarding `CC[C@H](C)[C@H](NC(=O)[C@H](Cc1ccc2ccccc2c1)NC(=O)[C@H](CCCNC(=N)N)NC(=O)[C@H](CCCNC(=N)N)NC(=O)[C@H](Cc1ccc2ccccc2c1)NC(=O)[C@H](CCCCN)NC(C)=O)C(N)=O` [Pac-401 L, K (2-Nal) R R (2-Nal) I] (Ac-K[2Nal]RR[2Nal]I-NH2), the “MIC against E. coli” value against E. coli (18 h) turned out to be 16 µg/mL (≈ 15.9 µM). Further, in the data set with S. aureus (18 h), the “MIC against S. aureus” value came out at 8 µg/mL (≈ 7.94 µM). In data set [1], the “% lysis @ 5 μg/ml” value is on record as 0.85%, the “% lysis @ 50 μg/ml” value was 6.8% and the “% lysis @ 500 μg/ml” value was found to be 14%.

Take `CC(C)[C@@H]1NC(=O)[C@H](Cc2ccc3ccccc3c2)NC(=O)[C@H](CCCNC(=N)N)NC(=O)[C@H](CCCNC(=N)N)NC(=O)[C@H](Cc2ccc3ccccc3c2)NC(=O)[C@H](CCCCN)NC1=O` [Pac-402 C, K (2-Nal) R R (2-Nal) V] (cyclo(K[2Nal]RR[2Nal]V); ring closure inferred): in the data set on E. coli (18 h), the “MIC against E. coli” value was above 64 µg/mL. Moreover, in the data set with S. aureus (18 h), the “MIC against S. aureus” value is above 64 µg/mL.

Consider `CC(=O)N[C@@H](CCCCN)C(=O)N[C@@H](Cc1ccc2ccccc2c1)C(=O)N[C@@H](CCCNC(=N)N)C(=O)N[C@@H](CCCNC(=N)N)C(=O)N[C@@H](Cc1ccc2ccccc2c1)C(=O)N[C@H](C(N)=O)C(C)C` [Pac-402 L, K (2-Nal) R R (2-Nal) V] (Ac-K[2Nal]RR[2Nal]V-NH2; N-terminus and C-terminus assumed), for which, in data set [2], the “P50 (concentration of peptide leading to 50% of the maximum increase in NPN uptake)” value was found to be 16 µg/mL. In the data set on E. coli (18 h), the “MIC against E. coli” value came to 24 µg/mL (≈ 24.2 µM). Moreover, the “MIC against S. aureus” value with S. aureus (18 h) came out at 16 µg/mL (≈ 16.1 µM).

Regarding `CC[C@H](C)[C@@H]1NC(=O)[C@H](Cc2ccc3ccccc3c2)NC(=O)[C@H](CCCCN)NC(=O)[C@H](CCCNC(=N)N)NC(=O)[C@H](Cc2ccc3ccccc3c2)NC(=O)[C@H](CCCCN)NC1=O` [Pac-403 C, K (2-Nal) I K (2-Nal) R] (cyclo(K[2Nal]IK[2Nal]R); ring closure inferred), the “MIC against E. coli” value in the data set with E. coli (18 h) is above 64 µg/mL. The “MIC against S. aureus” value against S. aureus (18 h) is above 64 µg/mL.

As to `CC[C@H](C)[C@H](NC(=O)[C@H](Cc1ccc2ccccc2c1)NC(=O)[C@H](CCCCN)NC(C)=O)C(=O)N[C@@H](CCCCN)C(=O)N[C@@H](Cc1ccc2ccccc2c1)C(=O)N[C@@H](CCCNC(=N)N)C(N)=O` [Pac-403 L, K (2-Nal) I K (2-Nal) R] (Ac-K[2Nal]IK[2Nal]R-NH2), the “MIC against E. coli” value against E. coli (18 h) was 24 µg/mL (≈ 24.5 µM). Further, the “MIC against S. aureus” value in the data set on S. aureus (18 h) came to 16 µg/mL (≈ 16.3 µM). Besides, in data set [1], the “% lysis @ 5 μg/ml” value is 0.74%, the “% lysis @ 50 μg/ml” value turned out to be 7.2% and the “% lysis @ 500 μg/ml” value is 15%.

On to `CC[C@H](C)[C@H](NC(=O)[C@H](Cc1ccc2ccccc2c1)NC(=O)[C@H](CCCCN)NC(=O)[C@@H](NC(=O)[C@H](Cc1ccc2ccccc2c1)NC(=O)[C@H](CCCCN)NC(=O)[C@@H](NC(=O)[C@H](Cc1ccc2ccccc2c1)NC(=O)[C@H](CCCCN)NC(C)=O)[C@@H](C)CC)[C@@H](C)CC)C(N)=O` [Pac-621, Ac-K(2-Nal) IK(2-Nal) IK(2-Nal) I-NH2] (Ac-K[2Nal]IK[2Nal]IK[2Nal]I-NH2), for which, in the data set with E. coli, the “MIC against E. coli” value was determined as 8 µg/mL (≈ 5.82 µM). Moreover, in the data set with S. aureus, the “MIC against S. aureus” value came to 16 µg/mL (≈ 11.6 µM).

For `CC[C@H](C)[C@@H]1NC(=O)[C@H](Cc2ccc3ccccc3c2)NC(=O)[C@H](CCCNC(=N)N)NC(=O)[C@H](C(C)C)NC(=O)[C@H](Cc2ccc3ccccc3c2)NC(=O)[C@H](CCCNC(=N)N)NC(=O)[C@H](CCCNC(=N)N)NC(=O)[C@H](Cc2ccc3ccccc3c2)NC(=O)[C@H](CCCCN)NC1=O` [Pac-625 C, K (2-Nal) R R (2-Nal) V R (2-Nal) I] (cyclo(K[2Nal]RR[2Nal]VR[2Nal]I); ring closure inferred), the “MIC against E. coli” value against E. coli (18 h) was determined as 64 µg/mL (≈ 45.7 µM). In the data set on S. aureus (18 h), the “MIC against S. aureus” value was determined as 64 µg/mL (≈ 45.7 µM).

Take `CC[C@H](C)[C@@H]1NC(=O)[C@H](CCCCN)NC(=O)[C@H](Cc2ccc3ccccc3c2)NC(=O)[C@H](CCCNC(=N)N)NC(=O)[C@H](CCCNC(=N)N)NC(=O)[C@H](Cc2ccc3ccccc3c2)NC(=O)[C@H](C(C)C)NC(=O)[C@H](CCCNC(=N)N)NC(=O)[C@H](Cc2ccc3ccccc3c2)NC1=O` [Pac-626 C, I (2-Nal) R V (2-Nal) R R (2-Nal) K] (cyclo(I[2Nal]RV[2Nal]RR[2Nal]K); ring closure inferred): the “MIC against E. coli” value against E. coli (18 h) stood at 64 µg/mL (≈ 45.7 µM). In the data set on S. aureus (18 h), the “MIC against S. aureus” value was determined as 64 µg/mL (≈ 45.7 µM).

`CC[C@H](C)[C@@H]1NC(=O)[C@H](Cc2cccc3ccccc23)NC(=O)[C@H](CCCNC(=N)N)NC(=O)[C@H](C(C)C)NC(=O)[C@H](Cc2cccc3ccccc23)NC(=O)[C@H](CCCNC(=N)N)NC(=O)[C@H](CCCNC(=N)N)NC(=O)[C@H](Cc2cccc3ccccc23)NC(=O)[C@H](CCCCN)NC1=O` [Pac-627 C, K (1-Nal) R R (1-Nal) V R (1-Nal) I] (cyclo(K[1Nal]RR[1Nal]VR[1Nal]I); ring closure inferred): the “MIC against E. coli” value in the data set on E. coli (18 h) came to 64 µg/mL (≈ 45.7 µM). For the same compound, the “MIC against S. aureus” value with S. aureus (18 h) was 64 µg/mL (≈ 45.7 µM).

Regarding `CC[C@H](C)[C@H](NC(=O)[C@H](Cc1cccc2ccccc12)NC(=O)[C@H](CCCNC(=N)N)NC(=O)[C@@H](NC(=O)[C@H](Cc1cccc2ccccc12)NC(=O)[C@H](CCCNC(=N)N)NC(=O)[C@H](CCCNC(=N)N)NC(=O)[C@H](Cc1cccc2ccccc12)NC(=O)[C@H](CCCCN)NC(C)=O)C(C)C)C(N)=O` [Pac-627 L, K (1-Nal) R R (1-Nal) V R (1-Nal) I] (Ac-K[1Nal]RR[1Nal]VR[1Nal]I-NH2), the “MIC against E. coli” value with E. coli and in the data set on E. coli (18 h) was 4 µg/mL (≈ 2.74 µM) each time. Further, the “MIC against S. aureus” value in the data set with S. aureus and in the data set with S. aureus (18 h) was 4 µg/mL (≈ 2.74 µM) in each case.

Consider `CC[C@H](C)[C@@H]1NC(=O)[C@H](Cc2ccc(-c3ccccc3)cc2)NC(=O)[C@H](CCCNC(=N)N)NC(=O)[C@H](C(C)C)NC(=O)[C@H](Cc2ccc(-c3ccccc3)cc2)NC(=O)[C@H](CCCNC(=N)N)NC(=O)[C@H](CCCNC(=N)N)NC(=O)[C@H](Cc2ccc(-c3ccccc3)cc2)NC(=O)[C@H](CCCCN)NC1=O` [Pac-628 C, K (Bip) R R (Bip) V R (Bip) I] (cyclo(K[Bip]RR[Bip]VR[Bip]I); ring closure inferred), for which the “MIC against E. coli” value against E. coli (18 h) is 64 µg/mL (≈ 43.3 µM). Besides, the “MIC against S. aureus” value against S. aureus (18 h) came out at 64 µg/mL (≈ 43.3 µM).

As for `CC[C@H](C)[C@H](NC(=O)[C@H](Cc1ccc(-c2ccccc2)cc1)NC(=O)[C@H](CCCNC(=N)N)NC(=O)[C@@H](NC(=O)[C@H](Cc1ccc(-c2ccccc2)cc1)NC(=O)[C@H](CCCNC(=N)N)NC(=O)[C@H](CCCNC(=N)N)NC(=O)[C@H](Cc1ccc(-c2ccccc2)cc1)NC(=O)[C@H](CCCCN)NC(C)=O)C(C)C)C(N)=O` [Pac-628 L, K (Bip) R R (Bip) V R (Bip) I] (Ac-K[Bip]RR[Bip]VR[Bip]I-NH2), the “P50 (concentration of peptide leading to 50% of the maximum increase in NPN uptake)” value in data set [2] worked out at 4 µg/mL. Further, the “MIC against E. coli” value in the data set with E. coli and in the data set with E. coli (18 h) was 2 µg/mL (≈ 1.3 µM) in each case. The “MIC against S. aureus” value against S. aureus and against S. aureus (18 h) was 4 µg/mL (≈ 2.6 µM) in each case.

With `CC[C@H](C)[C@H](NC(=O)[C@H](Cc1ccc2ccccc2c1)NC(=O)[C@H](CCCNC(=N)N)NC(=O)[C@@H](NC(=O)[C@H](Cc1ccc2ccccc2c1)NC(=O)[C@H](CCCNC(=N)N)NC(=O)[C@@H](NC(=O)[C@H](Cc1ccc2ccccc2c1)NC(=O)[C@H](CCCCN)NC(C)=O)[C@@H](C)CC)C(C)C)C(N)=O` [Pac-629, Ac-K(2-Nal) IR(2-Nal) VR(2-Nal) I-NH2] (Ac-K[2Nal]IR[2Nal]VR[2Nal]I-NH2), in the data set on E. coli, the “MIC against E. coli” value was 8 µg/mL (≈ 5.65 µM). Also, the “MIC against S. aureus” value with S. aureus is 4 µg/mL (≈ 2.82 µM).
